Measurements: US11795378B2, “Iron control composition, make, and use in carbonate stimulation” (King Fahd University of Petroleum and Minerals, priority 2019, dated 2023)

Columns and labels:
[1] = 5% chelating agent, 3000 ppm ferric ions; cited from earlier work
[2] = Solubility and stability test of iron in concentrated HCl chelating agent formulations; assay type: physicochemical; settings: 5 wt. % single chelating agent, 72° F. (22.2° C.)
Procedure: The solubility test was conducted at varying HCl and chelating agent concentrations. During the solubility test the concentration of HCl was set to either 20 wt. % (low) or 28 wt. % (high) concentration.
Each chelating agent was used alone with varied concentrations ranging from 1 to 10 wt %.
To the evaluate the capability of the generated formulation to sustain the iron in the solution without precipitation, 3000 ppm of iron was dissolved in the respective formulations, and, after that, the stability of the formulation as function of time was evaluated.
The effect of the pH on the performance of exemplary inventive formulations was evaluated by repeating the solubility and stability tests at varied pH values.

[3] = 20 wt. % HCl, 3000 ppm iron, 96 hours
[4] = 28 wt. % HCl at pH 5, 3000 ppm ferric ions, after 96 hours

Structure (SMILES)	pH up to which ferric ions are kept in solution [1]	iron precipitation during stability evaluation [2, 3]	iron precipitation during stability evaluation [2, 4]
O=C(O)CC[C@@H](C(=O)O)N(CC(=O)O)CC(=O)O [GLDA, glutamic acid N,N-diacetic acid]	less than 3.0	no precipitation	precipitation
O=C(O)CN(CCO)CCN(CC(=O)O)CC(=O)O [HEDTA, hydroxyethyl ethylenediamine triacetic acid]	–	no precipitation	precipitation
